Laboratory results as given in PMC8231969, “Characterization of Two NMN Deamidase Mutants as Possible Probes for an NMN Biosensor” (International Journal of Molecular Sciences, 2021).
Like-named read-outs stand apart in the source and are kept apart here.

Columns and labels:
[1] = target: T1, S29A PncC (Escherichia coli, UniProt P0A6G3, S29A); format: binding, E. coli
T1 construct: made in house; host or cells: E. coli BL21(DE3)
Description: (§1) Experimental data were processed using the OriginPro 8.0 (OriginLab Corporation, Northampton, MA, USA). A non-linear curve analysis (Hill1 plot) was used for plotting the F0/F values in function of the metabolite concentration, to obtain the Kd value.

[2] = target: T2, K61Q PncC (Escherichia coli, UniProt P0A6G3, K61Q); format: binding, E. coli
T2 construct: made in house; host or cells: E. coli BL21(DE3)
Method: as §1
Percentage of the K61Q protein that would exist in complex with NMN in a cellular setting was calculated based on the Kd value, by using the equation: %=100/1+Kd/[NMN]

[3] = system: glutamine binding protein (GlnBP); details: GlnBP, high concentration of nucleotide
Method: Steady-state measurements were performed using an ISS_K2 fluorometer (ISS, Urbana-Champaign, IL, USA), equipped with a one-cell temperature-controlled sample holder. […] Excitation and emission slit widths were fixed at 0.5 and 1.0 nm, respectively. […] The nucleotides were added to reach the indicated final concentration (from 0.18 to 96 µM) with an incubation interval of 10 min. Triplicate readings were done for each experimental point. Experiments were repeated three times (for NMN and NaMN) or twice (for all the other metabolites). Controls experiments were performed using the E. coli Glutamine Binding Protein (GlnBP, 3µM), with increasing concentration of NMN or NaMN, at the same conditions.
Percentages of reduction of fluorescence intensities compared to buffer, were calculated as follow: (normalized fluorescence in presence of analyte at a given [µM]/normalized fluorescence in presence of corresponding volume of buffer) × 100.

[4] = target: the molecule itself; assay: SEC; gel filtration on Superose 12 HR 10/30, 50 mM HEPES pH 7.5, 0.3 M NaCl, 1 mM TCEP; 45 ug wild type, 30 ug mutants; calibrated with protein standards; self-association (dimer)
[5] = nucleotide 96 µM (maximum quenching)

| Molecule | S29A PncC fluorescence quenching (%) vs buffer ([1]; nucleotide 0.185 µM) | S29A PncC fluorescence quenching (%) vs buffer ([1]; nucleotide 0.375 µM) | S29A PncC fluorescence quenching (%) vs buffer ([1]; nucleotide 0.75 µM) | S29A PncC fluorescence quenching (%) vs buffer ([1]; nucleotide 1.5 µM) | S29A PncC fluorescence quenching (%) vs buffer ([1]; nucleotide 3 µM) | S29A PncC fluorescence quenching (%) vs buffer ([1]; nucleotide 6 µM) | S29A PncC fluorescence quenching (%) vs buffer ([1]; nucleotide 12 µM) | S29A PncC fluorescence quenching (%) vs buffer ([1]; nucleotide 24 µM) | S29A PncC fluorescence quenching (%) vs buffer ([1]; nucleotide 48 µM) | K61Q PncC fluorescence quenching (%) vs buffer ([2]; nucleotide 0.185 µM) | K61Q PncC fluorescence quenching (%) vs buffer ([2]; nucleotide 0.375 µM) | K61Q PncC fluorescence quenching (%) vs buffer ([2]; nucleotide 0.75 µM) | K61Q PncC fluorescence quenching (%) vs buffer ([2]; nucleotide 1.5 µM) | K61Q PncC fluorescence quenching (%) vs buffer ([2]; nucleotide 3 µM) | K61Q PncC fluorescence quenching (%) vs buffer ([2]; nucleotide 6 µM) | K61Q PncC fluorescence quenching (%) vs buffer ([2]; nucleotide 12 µM) | K61Q PncC fluorescence quenching (%) vs buffer ([2]; nucleotide 24 µM) | K61Q PncC fluorescence quenching (%) vs buffer ([2]; nucleotide 48 µM) | reduction of fluorescence of GlnBP [3] | stoichiometry N [4] | also measured |
| --- | --- | --- | --- | --- | --- | --- | --- | --- | --- | --- | --- | --- | --- | --- | --- | --- | --- | --- | --- | --- | --- |
| NC(=O)c1ccc[n+]([C@@H]2O[C@H](COP(=O)([O-])OP(=O)(O)OC[C@H]3O[C@@H](n4cnc5c(N)ncnc54)[C@H](O)[C@@H]3O)[C@@H](O)[C@H]2O)c1 [NAD, nicotinamide adenine dinucleotide] | 0.52% | 0.32% | 0.80% | 0% | 0.19% | 0.32% | 1.35% | 2.54% | 4.58% | 0.63% | 1.39% | 1.57% | 0.80% | 0.85% | 0% | 0.65% | 0.36% | 0.72% | 6.6% |  |  |
| NC(=O)c1ccc[n+]([C@@H]2O[C@H](COP(=O)(O)OP(=O)([O-])OC[C@H]3O[C@@H](n4cnc5c(N)ncnc54)[C@H](OP(=O)(O)O)[C@@H]3O)[C@@H](O)[C@H]2O)c1 [NADP] | 0% | 0% | 0.67% | 1.60% | 2.74% | 2.87% | 3.89% | 4.31% | 6.36% | 0% | 0.06% | 0.29% | 0.55% | 0.42% | 0% | 1.20% | 1.59% | 2.90% | 4.8% |  | K61Q PncC fluorescence quenching (%) vs buffer ([2]; nucleotide 96 µM): 5.1% |
| NC(=O)c1ccc[n+]([C@@H]2O[C@H](CO)[C@@H](O)[C@H]2O)c1 [NR, nicotinamide riboside] | 0% | 0.12% | 0.80% | 0.96% | 1.84% | 1.98% | 2.29% | 3.13% | 3.51% | 2.13% | 2.97% | 3.37% | 3.71% | 3.13% | 2.36% | 2.7% | 2.1% | 1.79% | do not affect |  | S29A PncC fluorescence quenching (%) vs buffer [1, 5]: 4.48% |
| O=C(O)c1cccnc1 [Na, nicotinic acid] | 0% | 0% | 0% | 0% | 0% | 0% | 0% | 0.16% | 0.62% | 0.49% | 1.2% | 2.11% | 2.66% | 2.89% | 2.81% | 3.26% | 2.74% | 3.69% | do not affect |  |  |
| NC(=O)c1cccnc1 [Nam, nicotinamide] | 0.08% | 0.18% | 0.48% | 1.49% | 2.51% | 2.65% | 3.29% | 3.29% | 3.71% | 0% | 0.34% | 0.87% | 0.68% | 0.91% | 0.26% | 1.15% | 1.04% | 1.14% | do not affect |  | S29A PncC fluorescence quenching (%) vs buffer [1, 5]: 5.01% |
| Nc1ncnc2c1ncn2[C@@H]1O[C@H](COP(=O)(O)OP(=O)([O-])OC[C@H]2O[C@@H]([n+]3cccc(C(=O)O)c3)[C@H](O)[C@@H]2O)[C@@H](O)[C@H]1O [NaAD, nicotinic acid adenine dinucleotide] | 0% | 0% | 0% | 0% | 0% | 0% | 0% | 0% | 1.97% | 0.65% | 1.02% | 1.68% | 2.19% | 2.25% | 2.39% | 3.72% | 4.13% | 5.77% | 6.3% |  |  |
| NMN deamidase (PncC) from E. coli, wild type (enzyme, UniProt P0A6G3 1-165, looked up, NMN deamidase PncC (EC 3.5.1.42), E. coli; the enzyme consists of 165 residues, 17.6 kDa; expressed from pCA24N-pncC; also called WT PncC; wild-type PncC; source: E. coli BL21(DE3), purified (HisTrap HP column, dialysis); not shown: His tag (from the HisTrap HP purification)) MTDSELMQLSEQVGQALKARGATVTTAESCTGGWVAKVITDIAGSSAWFERGFVTYSNEAKAQMIGVREETLAQHGAVSEPVVVEMAIGALKAARADYAVSISGIAGPDGGSEEKPVGTVWFAFATARGEGITRRECFSGDRDAVRRQATAYALQTLWQQFLQNT |  |  |  |  |  |  |  |  |  |  |  |  |  |  |  |  |  |  |  | 2 |  |
| S29A PncC (enzyme, E. coli, UniProt P0A6G3 1-165, looked up, NMN deamidase PncC (EC 3.5.1.42), E. coli; 165 residues; mutagenized pCA24N-pncC plasmid; also called PncC S29A mutant; source: E. coli BL21(DE3), purified (HisTrap HP column, dialysis); not shown: His tag (from the HisTrap HP purification)) MTDSELMQLSEQVGQALKARGATVTTAEACTGGWVAKVITDIAGSSAWFERGFVTYSNEAKAQMIGVREETLAQHGAVSEPVVVEMAIGALKAARADYAVSISGIAGPDGGSEEKPVGTVWFAFATARGEGITRRECFSGDRDAVRRQATAYALQTLWQQFLQNT |  |  |  |  |  |  |  |  |  |  |  |  |  |  |  |  |  |  |  | 2 |  |
| K61Q PncC (enzyme, E. coli, UniProt P0A6G3 1-165, looked up, NMN deamidase PncC (EC 3.5.1.42), E. coli; 165 residues; mutagenized pCA24N-pncC plasmid; also called PncC K61Q mutant; source: E. coli BL21(DE3), purified (HisTrap HP column, dialysis); not shown: His tag (from the HisTrap HP purification)) MTDSELMQLSEQVGQALKARGATVTTAESCTGGWVAKVITDIAGSSAWFERGFVTYSNEAQAQMIGVREETLAQHGAVSEPVVVEMAIGALKAARADYAVSISGIAGPDGGSEEKPVGTVWFAFATARGEGITRRECFSGDRDAVRRQATAYALQTLWQQFLQNT |  |  |  |  |  |  |  |  |  |  |  |  |  |  |  |  |  |  |  | 2 |  |
